From patent US9187472B2 (AbbVie Inc., priority 2012, dated 2015) come the findings set out here.

Usually IC50 stands for the concentration that inhibits the measured activity by half.

One test deals with PC3 cells. Kind of test: NAMPT Cell Proliferation Assay. Type of test: cell-based. Conditions: Homo sapiens, PC-3, 120 h, 5 days incubation, cell viability by Cell Titer Glo. In outline: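 Cell Titer Glo viability after 5-day exposure (37° C, 5% CO2); PC3, 500 cells/well, RPMI + 10% heat-inactivated FBS, overnight attachment before dosing. Dose range 10 μM to 1×10^−5 μM, 10-fold steps. IC50 = sigmoidal fit of % inhibition.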
A general note: Cellular ATP, detected with luciferase, serves as a proxy for viable cell number.

Test [1] addresses NAMPT (human, recombinant, C-terminally His-tagged) (Homo sapiens, UniProt P43490). Description: Time-Resolved Fluorescence Resonance Energy Transfer (TR-FRET) Binding Assay of NAMPT. The note with it: without substrates; 6.8 nM NAMPT, 200 nM probe, 3 hours equilibration. In outline:
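Competitive binding against an Oregon Green 488 tracer (200 nM), 6.8 nM His-tagged enzyme, 1 nM Tb antibody, 2% DMSO, 3 h at RT. IC50 derived from TR-FRET ratios.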
In general terms: TR-FRET usually uses a lanthanide donor and a delayed reading to cut background.

Another test concerns the target NAMPT (Homo sapiens, UniProt P43490). Kind of test: TR-FRET Binding Assay of NAMPT with PRPP. The note with it: with 200 μM PRPP and 2.5 mM ATP; 2 nM NAMPT, 2 nM probe, 16 hours equilibration. In outline:
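Read-out is TR-FRET after a 16 h equilibration allowing possible compound modification by the enzyme. Final mix: 2 nM NAMPT, 2 nM probe, 1 nM Tb-anti-His antibody, 200 μM PRPP, 2.5 mM ATP, 2% DMSO.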

NAMPT (human, recombinant, C-terminally His-tagged), sequence (P43490 whole entry): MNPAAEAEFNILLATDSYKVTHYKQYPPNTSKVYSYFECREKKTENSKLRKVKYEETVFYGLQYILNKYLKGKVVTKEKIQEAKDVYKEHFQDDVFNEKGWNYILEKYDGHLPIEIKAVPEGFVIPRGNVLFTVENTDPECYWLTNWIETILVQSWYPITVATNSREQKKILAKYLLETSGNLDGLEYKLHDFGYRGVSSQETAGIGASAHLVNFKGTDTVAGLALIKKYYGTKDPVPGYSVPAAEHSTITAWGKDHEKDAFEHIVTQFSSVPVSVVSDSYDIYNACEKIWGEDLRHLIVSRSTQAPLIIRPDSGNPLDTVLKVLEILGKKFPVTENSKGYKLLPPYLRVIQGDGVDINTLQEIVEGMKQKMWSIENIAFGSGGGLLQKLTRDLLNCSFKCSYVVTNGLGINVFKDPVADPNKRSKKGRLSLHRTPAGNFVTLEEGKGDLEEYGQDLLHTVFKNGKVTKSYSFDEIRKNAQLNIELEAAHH
NAMPT, sequence (P43490 whole entry): as above

In the case of `CC[C@H](C)C(=O)N1CC(c2ccc(NC(=O)NCc3ccn4ccnc4c3)cc2)C1` [Example 453, 1-(imidazo[1,2-a]pyridin-7-ylmethyl)-3-(4-{1-[(2S)-2-methylbutanoyl]azetidin-3-yl}phenyl)urea], the values for the IC50 (in the test with PC3 cells; in test [1]; on NAMPT) were 9.21 nM, 152 nM and 0.258 nM, respectively.

In the case of `CC(C)Cn1cc(-c2ccc(C(=O)NCc3ccn4ccnc4c3)o2)cn1` [Example 740, N-(imidazo[1,2-a]pyridin-7-ylmethyl)-5-[1-(2-methylpropyl)-1H-pyrazol-4-yl]furan-2-carboxamide], the IC50 with PC3 cells was 8.13 nM; in test [1], 70.1 nM; at NAMPT, 0.403 nM.

As to `O=C(NCc1ccn2ccnc2c1)c1ccc(Oc2ccccc2)cc1` [Example 489, N-(imidazo[1,2-a]pyridin-7-ylmethyl)-4-phenoxybenzamide], the figures for the IC50 (with PC3 cells; in test [1]; on NAMPT) were greater than 10000 nM, 1220 nM and 0.263 nM, respectively.

With `O=C(NCCCCC1CCN(C(=O)CN2CCOCC2)CC1)Nc1ccc2nccn2c1` [Example 71, 1-imidazo[1,2-a]pyridin-6-yl-3-{4-[1-(morpholin-4-ylacetyl)piperidin-4-yl]butyl}urea], the IC50 in the test with PC3 cells was 66.7 nM; in test [1], 754 nM; on NAMPT, 0.348 nM.

With `CC(C)C(=O)N1CCC(Oc2ccc(C(=O)NCc3ccc4nccn4c3)cc2)CC1` [Example 159, N-(imidazo[1,2-a]pyridin-6-ylmethyl)-4-{[1-(2-methylpropanoyl)piperidin-4-yl]oxy}benzamide], the IC50 in the test with PC3 cells worked out at 233 nM; in test [1], 2490 nM; on NAMPT it was 2.16 nM.

Regarding `CN1CCC(C(=O)N2CC=C(c3ccc(NC(=O)Nc4ccc5nccn5c4)cc3)CC2)CC1` [Example 36, 1-imidazo[1,2-a]pyridin-6-yl-3-(4-{1-[(1-methylpiperidin-4-yl)carbonyl]-1,2,3,6-tetrahydropyridin-4-yl}phenyl)urea], the values for the IC50 (with PC3 cells; in test [1]; at NAMPT) were 51.4 nM, 356 nM and 0.444 nM, respectively.

For `CC(C)C(=O)N1CC(O)(c2ccc(C(=O)NCc3ccn4ccnc4c3)s2)C1` [Example 400, 5-[3-hydroxy-1-(2-methylpropanoyl)azetidin-3-yl]-N-(imidazo[1,2-a]pyridin-7-ylmethyl)thiophene-2-carboxamide], the IC50 was found to be 712 nM with PC3 cells, 81.2 nM in test [1] and 0.298 nM on NAMPT.

`O=C(NCc1ccn2ccnc2c1)c1ccc(C2CCN(C(=O)c3ccccc3F)CC2)o1` [Example 735, 5-[1-(2-fluorobenzoyl)piperidin-4-yl]-N-(imidazo[1,2-a]pyridin-7-ylmethyl)furan-2-carboxamide]: the IC50 in the test on PC3 cells stood at 688 nM; in test [1], 646 nM; at NAMPT, 0.864 nM.

`O=C(NCc1ccn2ccnc2c1)c1ccc(C2CN(C(=O)c3ccccc3)C2)cc1` [Example 549, 4-(1-benzoylazetidin-3-yl)-N-(imidazo[1,2-a]pyridin-7-ylmethyl)benzamide]: the results for the IC50 (in the test on PC3 cells; in test [1]; on NAMPT) were 9.42 nM, 81.2 nM and 0.224 nM, respectively.

Regarding `CC(C)(C)OC(=O)N1CC=C(c2ccc(C(=O)NCc3ccc4nccn4c3)cc2)CC1` [Example 83, tert-butyl 4-{4-[(imidazo[1,2-a]pyridin-6-ylmethyl)carbamoyl]phenyl}-3,6-dihydropyridine-1(2H)-carboxylate], the values for the IC50 (with PC3 cells; in test [1]; on NAMPT) were 24.3 nM, 899 nM and 2.3 nM, respectively.

In the case of `CC(C)OCCNC(=O)N(CC1CCCO1)c1ncc(C(=O)NCc2ccc3nccn3c2)s1` (stereo not drawn) [Example 115, N-(imidazo[1,2-a]pyridin-6-ylmethyl)-2-[{[2-(propan-2-yloxy)ethyl]carbamoyl}(tetrahydrofuran-2-ylmethyl)amino]-1,3-thiazole-5-carboxamide], the IC50 is 6.38 nM with PC3 cells, 243 nM in test [1] and 0.676 nM on NAMPT.

On to `O=C(NCc1ccn2ccnc2c1)c1ccc(-c2ccccc2)s1` [Example 299, N-(imidazo[1,2-a]pyridin-7-ylmethyl)-5-phenylthiophene-2-carboxamide], for which the IC50 with PC3 cells turned out to be 8640 nM; in test [1] it was 172 nM; at NAMPT, 0.283 nM.

Consider `CC(C)Cn1cc(-c2ccc(NC(=O)NCc3ccn4ccnc4c3)cc2)cn1` [Example 486, 1-(imidazo[1,2-a]pyridin-7-ylmethyl)-3-{4-[1-(2-methylpropyl)-1H-pyrazol-4-yl]phenyl}urea], for which the values for the IC50 (in the test on PC3 cells; in test [1]; at NAMPT) were 23.3 nM, 91.7 nM and 0.232 nM, respectively.

`O=C(Nc1ccc(C2=CCN(C(=O)C3CCS(=O)(=O)CC3)CC2)cc1)Nc1ccc2nccn2c1` [Example 37, 1-(4-{1-[(1,1-dioxidotetrahydro-2H-thiopyran-4-yl)carbonyl]-1,2,3,6-tetrahydropyridin-4-yl}phenyl)-3-imidazo[1,2-a]pyridin-6-ylurea]: the values for the IC50 (with PC3 cells; in test [1]; on NAMPT) were 34.7 nM, 129 nM and 0.309 nM, respectively.

In the case of `CC(C)OCC(=O)N1CC(Oc2ccc(NC(=O)NCc3ccn4ccnc4c3)cc2)C1` [Example 429, 1-(imidazo[1,2-a]pyridin-7-ylmethyl)-3-[4-({1-[(propan-2-yloxy)acetyl]azetidin-3-yl}oxy)phenyl]urea], the IC50 was 18.6 nM in the test on PC3 cells, 129 nM in test [1] and 0.396 nM on NAMPT.

As to `Cc1noc(C)c1C(=O)N1CCC(c2ccc(C(=O)NCc3ccn4ccnc4c3)cc2)CC1` [Example 525, 4-{1-[(3,5-dimethyl-1,2-oxazol-4-yl)carbonyl]piperidin-4-yl}-N-(imidazo[1,2-a]pyridin-7-ylmethyl)benzamide], the IC50 in the test with PC3 cells is 6.77 nM; in test [1], 86.4 nM; on NAMPT, 0.213 nM.

Regarding `CC1(C(=O)N2CCC(c3ccc(C(=O)NCc4ccn5ccnc5c4)cc3)C2)CC1` (stereo not drawn) [Example 584, N-(imidazo[1,2-a]pyridin-7-ylmethyl)-4-{1-[(1-methylcyclopropyl)carbonyl]pyrrolidin-3-yl}benzamide], the IC50 was found to be 58.7 nM with PC3 cells, 811 nM in test [1] and 0.756 nM on NAMPT.

For the compound `O=C(NCc1ccn2ccnc2c1)Nc1ccc(C2CCN(C(=O)C3CCOCC3)CC2)cc1` [Example 221, 1-(imidazo[1,2-a]pyridin-7-ylmethyl)-3-{4-[1-(tetrahydro-2H-pyran-4-ylcarbonyl)piperidin-4-yl]phenyl}urea], the values for the IC50 (in the test with PC3 cells; in test [1]; at NAMPT) were 7.82 nM, 120 nM and 0.352 nM, respectively.

For `CC(C)S(=O)(=O)N1CC(c2ccc(C(=O)NCc3ccn4ccnc4c3)cc2)C1` [Example 557, N-(imidazo[1,2-a]pyridin-7-ylmethyl)-4-[1-(propan-2-ylsulfonyl)azetidin-3-yl]benzamide], the IC50 in the test on PC3 cells stood at 37.4 nM; in test [1], 167 nM; at NAMPT it was 0.359 nM.

As to `CC(C)(C)C(=O)N1CCC(c2ccc(C(=O)NCc3ccn4ccnc4c3)cc2)CC1` [Example 509, 4-[1-(2,2-dimethylpropanoyl)piperidin-4-yl]-N-(imidazo[1,2-a]pyridin-7-ylmethyl)benzamide], the 50% inhibitory concentration (IC50) in the test on PC3 cells was determined as 7.47 nM; in test [1] it was 163 nM; at NAMPT, 0.384 nM.

Consider `O=C(NCc1ccn2ccnc2c1)c1ccc(C2CCN(C(=O)c3ccccc3)C2)s1` (stereo not drawn) [Example 542, 5-(1-benzoylpyrrolidin-3-yl)-N-(imidazo[1,2-a]pyridin-7-ylmethyl)thiophene-2-carboxamide], for which the IC50 in the test with PC3 cells is 2.89 nM; in test [1] it was 35.1 nM; on NAMPT, 0.337 nM.

Regarding `O=C(NCc1ccn2ccnc2c1)c1ccc(C2CCN(C(=O)c3ccoc3)C2)cc1` (stereo not drawn) [Example 612, 4-[1-(furan-3-ylcarbonyl)pyrrolidin-3-yl]-N-(imidazo[1,2-a]pyridin-7-ylmethyl)benzamide], the IC50 in the test with PC3 cells turned out to be 695 nM; in test [1], 706 nM; on NAMPT, 0.919 nM.

With `O=C(NCCCCC1CCN(C(=O)C2CCCO2)CC1)Nc1ccc2nccn2c1` (stereo not drawn) [Example 74, 1-imidazo[1,2-a]pyridin-6-yl-3-{4-[1-(tetrahydrofuran-2-ylcarbonyl)piperidin-4-yl]butyl}urea], the values for the IC50 (in the test on PC3 cells; in test [1]; on NAMPT) were 14 nM, 356 nM and 0.222 nM, respectively.

As to `CC[C@H](C)C(=O)NC1(c2ccc(C(=O)NCc3ccn4ccnc4c3)s2)COC1` [Example 408, N-(imidazo[1,2-a]pyridin-7-ylmethyl)-5-(3-{[(2S)-2-methylbutanoyl]amino}oxetan-3-yl)thiophene-2-carboxamide], the IC50 was determined as 19.2 nM in the test on PC3 cells, 276 nM in test [1] and 0.725 nM on NAMPT.

Consider `O=C(NCc1ccc2nccn2c1)c1cnc(N2CC(c3ccc(Cl)cc3)OC2=O)s1` (stereo not drawn) [Example 158, 2-[5-(4-chlorophenyl)-2-oxo-1,3-oxazolidin-3-yl]-N-(imidazo[1,2-a]pyridin-6-ylmethyl)-1,3-thiazole-5-carboxamide], for which the results for the IC50 (in the test on PC3 cells; in test [1]; at NAMPT) were 191 nM, 341 nM and 6.39 nM, respectively.
